“And” between values parts separate entries of the source, which are not always exact repeats. Identical values can stand only once. Inconclusive results and toxic doses are left out.
System: CD2F1 mice, intracerebral L1210 leukemia, survival T/C
Assay: NCI In Vivo Anticancer Drug Screen. Data for tumor model L1210 Leukemia (intracerebral) in CD2F1 (CDF1) mice
Settings: higher = longer survival
Protocol: The antitumor activity of compounds was measured in mice bearing transplantable tumors. Survival or tumor size were measured and the results are expressed as the measurement made in the treated group (T) divided by the measurement made in the vehicle treated control group (C). The tumor model used in this assay is L1210 Leukemia (intracerebral) in CD2F1 (CDF1) mice

CN(C)CC(=O)c1ccc(O)c(O)c1
T/C (endpoint: median survival time, dose: 100.0 mg/kg/injection, schedule: Q01DX005 (ip), vehicle: saline): 95 % of control and 107 % of control | T/C (endpoint: median survival time, dose: 200.0 mg/kg/injection, schedule: Q01DX005 (ip), vehicle: saline): 109 % of control | T/C (endpoint: median survival time, dose: 400.0 mg/kg/injection, schedule: Q01DX005 (ip), vehicle: saline): 290 % of control and 103 % of control | T/C (endpoint: median survival time, dose: 800.0 mg/kg/injection, schedule: Q01DX005 (ip), vehicle: saline): 88 % of control and 110 % of control

O=P1(NCCCl)OCCCN1CCCl (stereo not drawn)
T/C (endpoint: median survival time, dose: 40.0 mg/kg/injection, schedule: Q01DX001 (ip), vehicle: saline): 97 % of control | T/C (endpoint: median survival time, dose: 80.0 mg/kg/injection, schedule: Q01DX001 (ip), vehicle: saline): 102 % of control | T/C (endpoint: median survival time, dose: 160.0 mg/kg/injection, schedule: Q01DX001 (ip), vehicle: saline): 105 % of control | T/C (endpoint: median survival time, dose: 320.0 mg/kg/injection, schedule: Q01DX001 (ip), vehicle: saline): 113 % of control

O=NN(CCCl)C(=O)NCCCl
T/C (endpoint: mean survival time, dose: 10.0 mg/kg/injection, schedule: Q01DX001 (ip), vehicle: saline): 175 % of control | T/C (endpoint: mean survival time, dose: 15.0 mg/kg/injection, schedule: Q01DX002 (ip), vehicle: saline + alcohol): 184 % of control | T/C (endpoint: mean survival time, dose: 20.0 mg/kg/injection, schedule: Q01DX001 (ip), vehicle: saline + alcohol): 169 % of control and 182 % of control | T/C (endpoint: mean survival time, dose: 20.0 mg/kg/injection, schedule: Q01DX001 (ip), vehicle: saline): 210 % of control and 254 % of control | T/C (endpoint: mean survival time, dose: 20.0 mg/kg/injection, schedule: Q01DX002 (ip), vehicle: saline + alcohol): 281 % of control | T/C (endpoint: mean survival time, dose: 25.0 mg/kg/injection, schedule: Q01DX002 (ip), vehicle: saline + alcohol): 348 % of control | T/C (endpoint: mean survival time, dose: 30.0 mg/kg/injection, schedule: Q01DX001 (ip), vehicle: saline + alcohol): 220 % of control and 319 % of control | T/C (endpoint: mean survival time, dose: 30.0 mg/kg/injection, schedule: Q01DX002 (ip), vehicle: saline + alcohol): 184 % of control | T/C (endpoint: mean survival time, dose: 40.0 mg/kg/injection, schedule: Q01DX001 (ip), vehicle: saline + alcohol): 343 % of control | T/C (endpoint: mean survival time, dose: 40.0 mg/kg/injection, schedule: Q01DX001 (ip), vehicle: saline): 202 % of control | T/C (endpoint: median survival time, dose: 4.0 mg/kg/injection, schedule: Q01DX001 (ip), vehicle: saline + alcohol): 93 % of control | T/C (endpoint: median survival time, dose: 8.0 mg/kg/injection, schedule: Q01DX001 (ip), vehicle: saline + alcohol): 97 % of control | T/C (endpoint: median survival time, dose: 12.5 mg/kg/injection, schedule: Q01DX001 (ip), vehicle: DMSO): 173 % of control | T/C (endpoint: median survival time, dose: 16.0 mg/kg/injection, schedule: Q01DX001 (ip), vehicle: saline + alcohol): 97 % of control | T/C (endpoint: median survival time, dose: 20.0 mg/kg/injection, schedule: Q01DX001 (ip), vehicle: distilled water + alcohol): 305 % of control | T/C (endpoint: median survival time, dose: 20.0 mg/kg/injection, schedule: Q01DX001 (ip), vehicle: saline + alcohol): 190 % of control | T/C (endpoint: median survival time, dose: 24.0 mg/kg/injection, schedule: Q01DX001 (ip), vehicle: saline + alcohol): 122 % of control and 153 % of control and 270 % of control | T/C (endpoint: median survival time, dose: 25.0 mg/kg/injection, schedule: Q01DX001 (ip), vehicle: DMSO): 253 % of control | T/C (endpoint: median survival time, dose: 30.0 mg/kg/injection, schedule: Q01DX001 (ip), vehicle: saline + alcohol): 201 % of control and 313 % of control | T/C (endpoint: median survival time, dose: 40.0 mg/kg/injection, schedule: Q01DX001 (ip), vehicle: distilled water + alcohol): 183 % of control | T/C (endpoint: median survival time, dose: 40.0 mg/kg/injection, schedule: Q01DX001 (ip), vehicle: saline + alcohol): 220 % of control | T/C (endpoint: median survival time, dose: 60.0 mg/kg/injection, schedule: Q01DX001 (ip), vehicle: saline + alcohol): 166 % of control

COc1cc([C@@H]2c3cc4c(cc3[C@@H](OC3OC5COC(C)OC5C(O)C3O)[C@H]3COC(=O)[C@H]23)OCO4)cc(OC)c1O (stereo partly drawn)
T/C (endpoint: median survival time, dose: 0.5 mg/kg/injection, schedule: Q01DX009 (ip), vehicle: saline): 103 % of control | T/C (endpoint: median survival time, dose: 1.0 mg/kg/injection, schedule: Q01DX009 (ip), vehicle: saline): 101 % of control | T/C (endpoint: median survival time, dose: 2.0 mg/kg/injection, schedule: Q01DX009 (ip), vehicle: saline): 94 % of control | T/C (endpoint: median survival time, dose: 4.0 mg/kg/injection, schedule: Q01DX009 (ip), vehicle: saline): 91 % of control | T/C (endpoint: median survival time, dose: 8.0 mg/kg/injection, schedule: Q01DX009 (ip), vehicle: saline): 102 % of control

N=[N+]=CC(=O)CCC(NC(=O)C(CCC(=O)C=[N+]=N)NC(=O)CCC(N)C(=O)O)C(=O)O (stereo not drawn)
T/C (endpoint: median survival time, dose: 0.05 mg/kg/injection, schedule: Q01DX005 (ip), vehicle: Klucel (hydroxypropylcellulose) (HPC)): 95 % of control and 100 % of control | T/C (endpoint: median survival time, dose: 0.1 mg/kg/injection, schedule: Q01DX005 (ip), vehicle: Klucel (hydroxypropylcellulose) (HPC)): 93 % of control and 100 % of control | T/C (endpoint: median survival time, dose: 0.2 mg/kg/injection, schedule: Q01DX005 (ip), vehicle: Klucel (hydroxypropylcellulose) (HPC)): 96 % of control and 102 % of control | T/C (endpoint: median survival time, dose: 0.4 mg/kg/injection, schedule: Q01DX005 (ip), vehicle: Klucel (hydroxypropylcellulose) (HPC)): 94 % of control and 100 % of control

c1ccc([C@H]2CN3CCSC3=N2)cc1
T/C (endpoint: median survival time, dose: 5.0 mg/kg/injection, schedule: Q01DX009 (ip), vehicle: saline): 100 % of control and 101 % of control and 103 % of control | T/C (endpoint: median survival time, dose: 10.0 mg/kg/injection, schedule: Q01DX005 (ip), vehicle: saline): 101 % of control | T/C (endpoint: median survival time, dose: 10.0 mg/kg/injection, schedule: Q01DX009 (ip), vehicle: saline): 124 % of control and 100 % of control and 102 % of control | T/C (endpoint: median survival time, dose: 20.0 mg/kg/injection, schedule: Q01DX005 (ip), vehicle: saline): 98 % of control and 116 % of control | T/C (endpoint: median survival time, dose: 20.0 mg/kg/injection, schedule: Q01DX009 (ip), vehicle: saline): 97 % of control (2×) and 104 % of control | T/C (endpoint: median survival time, dose: 40.0 mg/kg/injection, schedule: Q01DX005 (ip), vehicle: saline): 98 % of control and 113 % of control

O=c1n(CC2CO2)c(=O)n(CC2CO2)c(=O)n1CC1CO1 (stereo not drawn)
T/C (endpoint: median survival time, dose: 16.4 mg/kg/injection, schedule: Q01DX009 (ip), vehicle: saline): 123 % of control | T/C (endpoint: median survival time, dose: 20.5 mg/kg/injection, schedule: Q01DX009 (ip), vehicle: saline): 115 % of control | T/C (endpoint: median survival time, dose: 40.0 mg/kg/injection, schedule: Q01DX009 (ip), vehicle: saline): 152 % of control | T/C (endpoint: median survival time, dose: 49.2 mg/kg/injection, schedule: Q01DX001 (ip), vehicle: saline): 114 % of control | T/C (endpoint: median survival time, dose: 50.0 mg/kg/injection, schedule: Q01DX009 (ip), vehicle: saline): 110 % of control and 116 % of control | T/C (endpoint: median survival time, dose: 61.4 mg/kg/injection, schedule: Q01DX001 (ip), vehicle: saline): 114 % of control | T/C (endpoint: median survival time, dose: 70.0 mg/kg/injection, schedule: Q01DX009 (ip), vehicle: saline): 109 % of control | T/C (endpoint: median survival time, dose: 76.8 mg/kg/injection, schedule: Q01DX001 (ip), vehicle: saline): 116 % of control | T/C (endpoint: median survival time, dose: 80.0 mg/kg/injection, schedule: Q01DX009 (ip), vehicle: saline): 107 % of control | T/C (endpoint: median survival time, dose: 90.0 mg/kg/injection, schedule: Q01DX009 (ip), vehicle: saline): 119 % of control | T/C (endpoint: median survival time, dose: 180.0 mg/kg/injection, schedule: Q01DX009 (ip), vehicle: saline): 117 % of control

CC1CN1C(=O)NCCCCCCNC(=O)N1CC1C (stereo not drawn)
T/C (endpoint: median survival time, dose: 1.25 mg/kg/injection, schedule: Q01DX009 (ip), vehicle: Klucel (hydroxypropylcellulose) (HPC)): 103 % of control | T/C (endpoint: median survival time, dose: 2.5 mg/kg/injection, schedule: Q01DX009 (ip), vehicle: Klucel (hydroxypropylcellulose) (HPC)): 102 % of control | T/C (endpoint: median survival time, dose: 5.0 mg/kg/injection, schedule: Q01DX009 (ip), vehicle: Klucel (hydroxypropylcellulose) (HPC)): 112 % of control | T/C (endpoint: median survival time, dose: 10.0 mg/kg/injection, schedule: Q01DX009 (ip), vehicle: Klucel (hydroxypropylcellulose) (HPC)): 120 % of control | T/C (endpoint: median survival time, dose: 20.0 mg/kg/injection, schedule: Q01DX009 (ip), vehicle: Klucel (hydroxypropylcellulose) (HPC)): 120 % of control

CC1CC(C)(O)CC(C(O)CC2CC(=O)NC(=O)C2)C1=O (stereo not drawn)
T/C (endpoint: mean survival time, dose: 0.02 mg/kg/injection, schedule: Q01DX009 (ip), vehicle: saline): 97 % of control | T/C (endpoint: mean survival time, dose: 0.04 mg/kg/injection, schedule: Q01DX009 (ip), vehicle: saline): 92 % of control | T/C (endpoint: mean survival time, dose: 0.08 mg/kg/injection, schedule: Q01DX009 (ip), vehicle: saline): 110 % of control | T/C (endpoint: mean survival time, dose: 0.16 mg/kg/injection, schedule: Q01DX009 (ip), vehicle: saline): 100 % of control | T/C (endpoint: mean survival time, dose: 0.32 mg/kg/injection, schedule: Q01DX009 (ip), vehicle: saline): 106 % of control

CCN(CC)c1ccc2cc3ccc(=[N+](CC)CC)cc-3oc2c1
T/C (endpoint: median survival time, dose: 4.0 mg/kg/injection, schedule: Q01DX005 (ip), vehicle: saline): 104 % of control | T/C (endpoint: median survival time, dose: 8.0 mg/kg/injection, schedule: Q01DX005 (ip), vehicle: saline): 98 % of control | T/C (endpoint: median survival time, dose: 16.0 mg/kg/injection, schedule: Q01DX005 (ip), vehicle: saline): 105 % of control and 113 % of control

C[n+]1c2ccccc2nc2c(N)cc(N)cc21
T/C (endpoint: median survival time, dose: 4.0 mg/kg/injection, schedule: Q01DX005 (ip), vehicle: suspension in saline): 93 % of control and 98 % of control | T/C (endpoint: median survival time, dose: 8.0 mg/kg/injection, schedule: Q01DX005 (ip), vehicle: suspension in saline): 102 % of control | T/C (endpoint: median survival time, dose: 16.0 mg/kg/injection, schedule: Q01DX005 (ip), vehicle: suspension in saline): 96 % of control and 98 % of control | T/C (endpoint: median survival time, dose: 32.0 mg/kg/injection, schedule: Q01DX005 (ip), vehicle: suspension in saline): 96 % of control and 97 % of control

Reference: PubChem BioAssay AID260 (DTP/NCI, 2004)
